Assays:
[1] = system: B. burgdorferi outer surface protein OspC; assay: Study B: fluorescent-bead-based multiplex assay, antibodies against OspC; type: in vivo, beagle dogs; conditions: Day 111
Description: (§1) Thirty-two (18 male and 14 female) beagle dogs were sero-negative for Borrelia burgdorferi, not vaccinated with any Borrelia spp vaccines, and acclimated at the study facility for seven days. The study was conducted under National Research Council guidelines (1996). […] Field-caught Ixodes from the northeast USA were placed on the dogs without containment chambers for 10 days; after ticks fed to repletion, dogs were treated with two applications of an approved topical acaricide with a 30-day interval between applications.
Forty days post-challenge, and prior to antibiotic treatments, blood was collected from each dog as were two skin biopsy punch samples near tick attachment sites. Blood was collected approximately monthly post-treatment. Skin biopsies were taken near the tick attachment site on Days 48/49, 118, 146, 180, and 315. Serum antibodies to Borrelia were assayed using the IDEXX SNAP-4Dx and QC6 ELISA. In cooperation with Cornell University, serum samples were analyzed using fluorescent-bead-based multiplex assays detecting antibodies against B. burgdorferi outer surface proteins OspA, OspC, and OspF. Data were expressed as median fluorescent intensities (MFI), and shown to be specific and sensitive to provide interpretative guidelines regarding infection. The skin biopsies were collected for a polymerase chain reaction (PCR; FlaB) assay and cultured for spirochete detection. […]

[2] = feline; cited from earlier work
B. burgdorferi [3] = assay: Study A: bacterial culture of skin biopsy samples for spirochetes; type: in vivo, beagle dogs
Description: Twenty-three adult female beagle dogs were used in this study; all were sero-negative for Borrelia, not vaccinated with any Borrelia spp vaccines, and acclimated at the study facility for seven days prior to any study activities. The study was conducted under National Research Council guidelines (1996. Dogs were randomized to a non-infected control (n=7 dogs) group, or infected groups (n=8 dogs/region) using ticks from two regions of the USA, Region A (New England (NE), i.e., Rhode Island) and Region B (Midwest (MW), i.e., Wisconsin). Dogs were infected on Day 0 with up to 30 Ixodes scapularis ticks per dog. Tick attachment was monitored daily and after nine days, remaining ticks were harvested and all dogs were treated with two topical applications of an approved acaricide observing a 30-day interval between applications. Dogs were monitored 21-days post-challenge for pyrexia, and the entire post-challenge period for clinical signs of Lyme disease (lameness, ataxia, anorexia, lymphadenopathy and depression).
Blood was collected from each dog weekly to Day 28, then every two-weeks for the remainder of the study (166 days). […] Two skin punch biopsies were collected near tick attachment sites from each dog every 28 days post-challenge for bacterial culture.
On Days 83 and 97, Convenia was administered (8 mg/kg bodyweight; subcutaneous injection). Treated dogs, 8 B. burgdorferi-positive and 4 controls, were compared to untreated cohorts (8 B. burgdorferi-positive, and 3 controls). Comparisons included serology, skin culture results and joint pathology.

[4] = system: B. burgdorferi outer surface protein OspF; assay: Study B: fluorescent-bead-based multiplex assay, antibodies against OspF; type: in vivo, beagle dogs; conditions: for Multiplex Assay OspF: No. Dogs > Positive Threshold (# dogs > 1500): 8 dogs/group
Description: as §1
Forty days post-challenge, and prior to antibiotic treatments, blood was collected from each dog as were two skin biopsy punch samples near tick attachment sites. Blood was collected approximately monthly post-treatment. Skin biopsies were taken near the tick attachment site on Days 48/49, 118, 146, 180, and 315. Serum antibodies to Borrelia were assayed using the IDEXX SNAP-4Dx and QC6 ELISA. In cooperation with Cornell University, serum samples were analyzed using fluorescent-bead-based multiplex assays detecting antibodies against B. burgdorferi outer surface proteins OspA, OspC, and OspF. […] The skin biopsies were collected for a polymerase chain reaction (PCR; FlaB) assay and cultured for spirochete detection. At the end of the study, blood and skin biopsies were collected and synovial tissue from the joints were harvested at necropsy.
(§2) On Day 75 and Day 89 Convenia was administered to the eight dogs in T04 (8 mg/kg bodyweight; subcutaneous injection). The other treated groups received their respective regimens daily and orally for 30 days from Days 75 to 104. […] Dogs in T01 served as infected, untreated, controls.

[5] = following subcutaneous injection; cited from earlier work
B. burgdorferi [6] = assay: Study A: joint culture and microscopic pathology of joints and skin; type: in vivo, beagle dogs
Description: Comparisons included serology, skin culture results and joint pathology.
Ten joints from each dog were cultured for spirochetes and examined microscopically for changes. Joints included carpus, elbow, shoulder, stifle and tarsus on both the right and left, front and rear limbs. Skin sections were also examined for Lyme disease related changes (pathology). There were six joints from untreated dogs that cultured positive for spirochetes compared to none from dogs treated with Convenia. Microscopically, all untreated, infected dogs had skin sections with inflammatory and other changes as described for Lyme disease, whereas six of eight (75%) treated dogs had similar findings. With the exception of one treated dog with all joints free of pathology, all other dogs had at least two joints showing Lyme disease changes. Despite the microscopic findings, definitively attributing joint pathology to infection or amelioration of pathology as a result of Convenia therapy was equivocal.

B. burgdorferi [7] = assay: Study B: QC6 ELISA in tick-infected dogs; type: in vivo, beagle dogs; conditions: 8 dogs/group
Description: Three outer surface proteins (Osp) on B. burgdorferi are important for diagnosis and prevention, and are expressed by the organism in response to its local environment. […] OspF is another surface protein that is generally observed in late-stage disease. The C in […] refers to a 25-amino acid, C6 peptide in the sixth invariable region of an outer membrane lipoprotein (VIsE). Antibody against C6 is highly accurate as a serologic diagnosis of Lyme disease independent of a subject's (e.g., canine) vaccination status. Further, the generation of C6 antibodies implies an active infection with viable spirochetes. Serological methods for detecting B. burgdorfer/Lyme disease were conducted using the IDEXX qualitative SNAP-4Dx ELISA and the Quantitative C6 (Quant C6 or QC6) diagnostic kits, which are enzyme linked immunosorbent assays against the previously described 25-amino-acid C6 peptide. QC6 ELISA data, units/mL, are useful for guidance in initiating and evaluating response to therapy (See Levy S A, O'Connor T P, Hanscom J L, Shields P, et al. Quantitative measurement of a C6 antibody following antibiotic treatment of Borrelia burgdorferi antibody-positive, nonclinical dogs. Clin Vacc Immunol 2008; 15(1):115-119 and Littman M P, Goldstein R E, Labato M A, et al. ACVIM Small Animal Concensus Statement on Lyme Disease in Dogs: Diagnosis, Treatment and Prevention. J Vet Intern Med 2006; 20: 422-434).
as §1
Forty days post-challenge, and prior to antibiotic treatments, blood was collected from each dog as were two skin biopsy punch samples near tick attachment sites. Blood was collected approximately monthly post-treatment. Skin biopsies were taken near the tick attachment site on Days 48/49, 118, 146, 180, and 315. Serum antibodies to Borrelia were assayed using the IDEXX SNAP-4Dx and QC6 ELISA. In cooperation with Cornell University, serum samples were analyzed using fluorescent-bead-based multiplex assays detecting antibodies against B. burgdorferi outer surface proteins OspA, OspC, and OspF. Data were expressed as median fluorescent intensities (MFI), and shown to be specific and sensitive to provide interpretative guidelines regarding infection. The skin biopsies were collected for a polymerase chain reaction (PCR; FlaB) assay and cultured for spirochete detection. At the end of the study, blood and skin biopsies were collected and synovial tissue from the joints were harvested at necropsy.
as §2, with “controls. Inter-treatment comparisons to evaluate antibiotic efficacy included clinical signs, serology, culture results and pathology.” for “controls.”

[8] = prior to treatment, of eight dogs

CO/N=C(\C(=O)N[C@@H]1C(=O)N2C(C(=O)[O-])=C([C@@H]3CCCO3)CS[C@H]12)c1csc(N)n1.[Na+] [Convenia, (6R,7R)-7-[[(2Z)-(2-amino-4-thiazolyl)(methoxyimino)acetyl]-amino]-8-oxo-3-[(2S)-tetrahydro-2-furanyl]-5-thia-1-azabicyclo[4.2.0]oct-2-ene-2-carboxylic acid, monosodium salt]
Number of dogs above infected threshold (antibody-OspC) [1]: one
Elimination half-life [2]: ~166 h
Bacterial culture of skin for spirochetes (B. burgdorferi [3]; post-treatment (Days 111 to 166), 8 mg/kg sc Days 83 and 97): all were negative on bacterial culture
Dogs culture-positive for spirochetes from skin (B. burgdorferi [3]; [8]): 88%
Number of dogs culture-positive for spirochetes from skin (B. burgdorferi [3]; [8]): Seven
Multiplex Assay OspF: MFI Mean ([4]; Day 48 (pre-treatment)): 922.75 MFI
Multiplex Assay OspF: No. Dogs > Positive Threshold (# dogs > 1500) ([4]; Day 48 (pre-treatment)): 2
Multiplex Assay OspF: No. Dogs > Positive Threshold (# dogs > 1500) ([4]; Day 48 (pre-treatment), monosodium salt): two
Multiplex Assay OspF: MFI Mean ([4]; Day 111): 704.13 MFI
Multiplex Assay OspF: No. Dogs > Positive Threshold (# dogs > 1500) ([4]; Day 111): 0
Multiplex Assay OspF: MFI Mean ([4]; Day 145): 306.75 MFI
Multiplex Assay OspF: No. Dogs > Positive Threshold (# dogs > 1500) ([4]; Day 145): 0
Multiplex Assay OspF: MFI Mean ([4]; Day 179): 270.00 MFI
Multiplex Assay OspF: No. Dogs > Positive Threshold (# dogs > 1500) ([4]; Day 179): 0
Multiplex Assay OspF: MFI Mean ([4]; Day 221): 227.13 MFI
Multiplex Assay OspF: No. Dogs > Positive Threshold (# dogs > 1500) ([4]; Day 221): 0
Multiplex Assay OspF: MFI Mean ([4]; Day 251): 221.88 MFI
Multiplex Assay OspF: No. Dogs > Positive Threshold (# dogs > 1500) ([4]; Day 251): 0
Multiplex Assay OspF: MFI Mean ([4]; Day 281): 225.63 MFI
Multiplex Assay OspF: No. Dogs > Positive Threshold (# dogs > 1500) ([4]; Day 281): 0
Multiplex Assay OspF: MFI Mean ([4]; Day 314): 239.88 MFI
Multiplex Assay OspF: No. Dogs > Positive Threshold (# dogs > 1500) ([4]; Day 314): 0
Multiplex Assay OspF: MFI Mean ([4]; Day −15 (pre-infection)): 101.50 MFI
Multiplex Assay OspF: No. Dogs > Positive Threshold (# dogs > 1500) ([4]; Day −15 (pre-infection)): 0
Antibody-OspF status of dogs ([4]; after Day 48): all dogs negative thereafter
Absorption [5]: rapidly and completely absorbed
Number of treated dogs with all joints free of pathology (B. burgdorferi [6]; dog, in vivo): one
Number of treated dogs with skin sections with inflammatory and other changes as described for Lyme disease (B. burgdorferi [6]; of eight treated infected dogs): six
Treated dogs with skin sections with inflammatory and other changes as described for Lyme disease (B. burgdorferi [6]; of eight treated infected dogs): 75%
Joints that cultured positive for spirochetes (B. burgdorferi [6]; ten joints per dog, six in untreated dogs): none
Grade of inflammatory changes in joints (B. burgdorferi [6]; untreated dogs: moderate to marked): none to mild
Dogs Sero-converted to B. burgdorferi per QC6 ELISA (≧30 U/mL), (%) (B. burgdorferi [7]; Day 48 (pre-treatment)): 75.0%
Number of Dogs Sero-converted to B. burgdorferi per QC6 ELISA (≧30 U/mL), No. (B. burgdorferi [7]; Day 48 (pre-treatment)): 6
Dogs Sero-converted to B. burgdorferi per QC6 ELISA (≧30 U/mL), (%) (B. burgdorferi [7]; Day 111): 75.0%
Number of Dogs Sero-converted to B. burgdorferi per QC6 ELISA (≧30 U/mL), No. (B. burgdorferi [7]; Day 111): 6
Dogs Sero-converted to B. burgdorferi per QC6 ELISA (≧30 U/mL), (%) (B. burgdorferi [7]; Day 145): 0.0%
Number of Dogs Sero-converted to B. burgdorferi per QC6 ELISA (≧30 U/mL), No. (B. burgdorferi [7]; Day 145): 0
Dogs Sero-converted to B. burgdorferi per QC6 ELISA (≧30 U/mL), (%) (B. burgdorferi [7]; Day 179): 0.0%
Number of Dogs Sero-converted to B. burgdorferi per QC6 ELISA (≧30 U/mL), No. (B. burgdorferi [7]; Day 179): 0
Dogs Sero-converted to B. burgdorferi per QC6 ELISA (≧30 U/mL), (%) (B. burgdorferi [7]; Day 221): 0.0%
Number of Dogs Sero-converted to B. burgdorferi per QC6 ELISA (≧30 U/mL), No. (B. burgdorferi [7]; Day 221): 0
Dogs Sero-converted to B. burgdorferi per QC6 ELISA (≧30 U/mL), (%) (B. burgdorferi [7]; Day 251): 0.0%
Number of Dogs Sero-converted to B. burgdorferi per QC6 ELISA (≧30 U/mL), No. (B. burgdorferi [7]; Day 251): 0
Dogs Sero-converted to B. burgdorferi per QC6 ELISA (≧30 U/mL), (%) (B. burgdorferi [7]; Day 281): 0.0%
Number of Dogs Sero-converted to B. burgdorferi per QC6 ELISA (≧30 U/mL), No. (B. burgdorferi [7]; Day 281): 0
Dogs Sero-converted to B. burgdorferi per QC6 ELISA (≧30 U/mL), (%) (B. burgdorferi [7]; Day 314): 0.0%
Number of Dogs Sero-converted to B. burgdorferi per QC6 ELISA (≧30 U/mL), No. (B. burgdorferi [7]; Day 314): 0

From patent publication US9265771B2, “Method for treating Lyme disease” (Zoetis Services LLC, priority 2012, dated 2016)
